# Reference: BindingDB's records for doi:10.1016/j.bmcl.2004.10.005 (Bristol Myers Squibb, 2004)
# Biological target: T1, Neuropeptide Y receptor type 1 (Homo sapiens, UniProt P25929)
# T1 sequence (P25929 whole entry): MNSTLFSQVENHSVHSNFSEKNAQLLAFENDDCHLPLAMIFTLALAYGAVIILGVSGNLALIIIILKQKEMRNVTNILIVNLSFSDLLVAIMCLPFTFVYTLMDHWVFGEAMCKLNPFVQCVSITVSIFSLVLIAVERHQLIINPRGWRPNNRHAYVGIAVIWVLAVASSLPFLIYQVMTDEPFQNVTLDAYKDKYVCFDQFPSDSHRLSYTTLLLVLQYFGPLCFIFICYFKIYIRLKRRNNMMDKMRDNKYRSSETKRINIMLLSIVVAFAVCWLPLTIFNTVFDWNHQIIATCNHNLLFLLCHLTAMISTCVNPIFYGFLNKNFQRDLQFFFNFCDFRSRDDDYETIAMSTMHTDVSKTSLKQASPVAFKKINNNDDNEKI
# Experiment: Inhibition of binding of [125I]PYY to membranes of SK-N-MC cells expressing the human Y1 receptors
row,Structure (SMILES),IC50
1,"COC(=O)C1=C(C)N=C(C)C(C(=O)OC)C1c1cccc(NC(=O)NCCNC2CCN(c3ccccc3C)CC2)c1 (stereo unspecified) [2,6-Dimethyl-4-(3-{3-[2-(1-o-tolyl-piperidin-4-ylamino)-ethyl]-ureido}-phenyl)-1,4-dihydro-pyridine-3,5-dicarboxylic acid dimethyl ester]",4 nM
2,"COC(=O)C1=C(C)N=C(C)C(C(=O)OC)C1c1cccc(NC(=O)NCCNC2CCN(c3ccccc3)CC2)c1 (stereo unspecified) [2,6-Dimethyl-4-(3-{3-[2-(1-phenyl-piperidin-4-ylamino)-ethyl]-ureido}-phenyl)-1,4-dihydro-pyridine-3,5-dicarboxylic acid dimethyl ester]",2 nM
3,"COC(=O)C1=C(C)N=C(C)C(C(=O)OC)C1c1cccc(NC(=O)NCCNC2CCN(c3ccccc3SC)CC2)c1 (stereo unspecified) [2,6-Dimethyl-4-[3-(3-{2-[1-(2-methylsulfanyl-phenyl)-piperidin-4-ylamino]-ethyl}-ureido)-phenyl]-1,4-dihydro-pyridine-3,5-dicarboxylic acid dimethyl ester]",5 nM
4,"COC(=O)C1=C(C)NC(C)=C(C(=O)OC)C1c1cccc(NC(=O)NCCNC2CCN(c3ccccc3[N+](=O)[O-])CC2)c1 [2,6-Dimethyl-4-[3-(3-{2-[1-(2-nitro-phenyl)-piperidin-4-ylamino]-ethyl}-ureido)-phenyl]-1,4-dihydro-pyridine-3,5-dicarboxylic acid dimethyl ester]",2 nM
5,"COC(=O)C1=C(C)N=C(C)C(C(=O)OC)C1c1cccc(NC(=O)NCCNC2CCN(c3cccc(Cl)c3)CC2)c1 (stereo unspecified) [4-[3-(3-{2-[1-(3-Chloro-phenyl)-piperidin-4-ylamino]-ethyl}-ureido)-phenyl]-2,6-dimethyl-1,4-dihydro-pyridine-3,5-dicarboxylic acid dimethyl ester]",8 nM
6,COC(=O)C1=C(C)N=C(C)C(C(=O)OC)C1c1cccc(NC(=NC#N)NCCNC2CCN(c3cccc(Cl)c3)CC2)c1 (stereo unspecified) [N-arylpiperazine derivative],8 nM
7,COC(=O)C1=C(C)NC(C)=C(C(=O)OC)C1c1cccc(NC(=NC#N)NCCNC2CCN(c3ccccc3[N+](=O)[O-])CC2)c1 [N-arylpiperazine derivative],4 nM

# Second part, the molecule after the results:
row,IC50,Structure (SMILES)
1,3 nM,"COC(=O)C1=C(C)N=C(C)C(C(=O)OC)C1c1cccc(NC(=O)NCCNC2CCN(c3ccccc3C#N)CC2)c1 (stereo unspecified) [4-[3-(3-{2-[1-(2-Cyano-phenyl)-piperidin-4-ylamino]-ethyl}-ureido)-phenyl]-2,6-dimethyl-1,4-dihydro-pyridine-3,5-dicarboxylic acid dimethyl ester]"
2,3 nM,COC(=O)C1=C(C)N=C(C)C(C(=O)OC)C1c1cccc(NC(=NC#N)NCCNC2CCN(c3ccccc3C#N)CC2)c1 (stereo unspecified) [N-arylpiperazine derivative]
3,4 nM,COC(=O)C1=C(C)N=C(C)C(C(=O)OC)C1c1cccc(NC(=NC#N)NCCNC2CCN(c3ccccc3C)CC2)c1 (stereo unspecified) [N-arylpiperazine derivative]
4,3 nM,COC(=O)C1=C(C)N=C(C)C(C(=O)OC)C1c1cccc(NC(=NC#N)NCCNC2CCN(c3ccccc3SC)CC2)c1 (stereo unspecified) [N-arylpiperazine derivative]
